Our source for the IC50 values is patent US20250215030A1, “STAT MODULATORS AND USES THEREOF” (Recludix Pharma, Inc., priority 2022, published 2025).

Assay [1] deals with T1, Recombinant STAT6 protein (STAT6(W123-T658)) (Homo sapiens, UniProt P42226).
T1 construct: STAT6(W123-T658)
T1 sequence (P42226 123-658): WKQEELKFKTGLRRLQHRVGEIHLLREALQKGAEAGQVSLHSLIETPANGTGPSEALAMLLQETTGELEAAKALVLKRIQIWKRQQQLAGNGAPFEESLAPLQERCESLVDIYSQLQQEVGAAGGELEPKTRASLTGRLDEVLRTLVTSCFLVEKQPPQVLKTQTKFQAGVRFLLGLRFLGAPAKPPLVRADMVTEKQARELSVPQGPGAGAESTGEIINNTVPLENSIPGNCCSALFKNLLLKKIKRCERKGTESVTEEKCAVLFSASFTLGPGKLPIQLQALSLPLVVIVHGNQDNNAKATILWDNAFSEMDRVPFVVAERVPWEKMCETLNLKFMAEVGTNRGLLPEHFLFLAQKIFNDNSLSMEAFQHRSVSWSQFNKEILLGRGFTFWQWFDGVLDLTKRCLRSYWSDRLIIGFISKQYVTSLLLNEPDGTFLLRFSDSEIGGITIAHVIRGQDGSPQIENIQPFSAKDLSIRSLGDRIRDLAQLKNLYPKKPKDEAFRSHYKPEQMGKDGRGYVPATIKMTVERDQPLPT
As to the kind of experiment: STAT6 Fluorescence Polarization (FP) Assay. It counts as binding. The conditions noted are these: STAT6(W123-T658) 250 nM, probe 5-FAM-ApYKPFQDLI-NH2 2 nM, 45-minute incubation. Put shortly:
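STAT6 (W123-T658) at 250 nM mixed with 2 nM 5-FAM-ApYKPFQDLI-NH2 probe in HEPES pH 7.4 buffer with DTT and Tween 20, 1% DMSO final. Polarization read after 45 min at room temperature; IC50 by nonlinear regression of mP versus log concentration, reported in bins A–D.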
For orientation: In fluorescence polarisation assays a small probe gives low polarisation when free and higher when bound to something large.

Assay [2] concerns the target T2, Recombinant STAT3 protein (STAT3(G127-I722)) (Homo sapiens, UniProt P40763).
T2 construct: STAT3(G127-I722)
In words: STAT3 Fluorescence Polarization (FP) Assay. The conditions noted are these: STAT3(G127-I722) 25 nM, probe 5-FAM-GpYLPQTV-NH2 2 nM, 45-minute incubation. It counts as binding. The essentials:
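STAT3(G127-I722) at 25 nM and 5-FAM-GpYLPQTV-NH2 probe at 2 nM in HEPES pH 7.4 buffer with NaCl, EDTA, Tween 20, DTT; 1% DMSO. FP read after 45 min at room temperature; IC50 by nonlinear regression of mP vs log concentration, binned A ≤100 nM to D >10 μM.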

T2 sequence (P40763 127-722, species assumed): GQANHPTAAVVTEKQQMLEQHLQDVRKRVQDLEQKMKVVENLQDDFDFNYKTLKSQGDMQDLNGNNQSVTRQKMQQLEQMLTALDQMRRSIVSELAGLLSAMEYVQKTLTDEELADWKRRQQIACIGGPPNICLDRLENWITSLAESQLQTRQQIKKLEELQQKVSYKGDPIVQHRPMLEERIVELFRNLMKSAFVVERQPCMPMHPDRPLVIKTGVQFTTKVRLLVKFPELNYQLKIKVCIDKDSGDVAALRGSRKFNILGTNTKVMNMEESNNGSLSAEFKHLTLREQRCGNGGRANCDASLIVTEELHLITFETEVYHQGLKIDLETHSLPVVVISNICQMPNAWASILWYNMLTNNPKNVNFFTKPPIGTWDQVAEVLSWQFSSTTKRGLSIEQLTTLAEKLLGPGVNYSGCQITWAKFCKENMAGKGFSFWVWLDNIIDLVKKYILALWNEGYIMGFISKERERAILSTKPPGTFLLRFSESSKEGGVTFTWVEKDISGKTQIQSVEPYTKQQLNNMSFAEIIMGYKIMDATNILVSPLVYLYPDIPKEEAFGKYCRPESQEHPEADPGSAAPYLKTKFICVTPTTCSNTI

On to `O=C(N[C@H]1C[C@@H]2C[C@@H]2C[C@H]2CC[C@@H](C(=O)N3CC(c4ncccn4)C3)N2C1=O)c1cc2cc(C(F)(F)P(=O)(O)O)ccc2s1` [Compound 65, (difluoro(2-(((3S,6S,7aS,8aR,9aR)-5-oxo-3-(3-(pyrimidin-2-yl)azetidine-1-carbonyl)decahydro-1H-cyclopropa[d]pyrrolo[1,2-a]azocin-6-yl)carbamoyl)benzo[b]thiophen-5-yl)methyl)phosphonic acid], for which the IC50 in assay [1] was 3 to 30 µM; in assay [2], less than 0.1 µM.
For the compound `O=C(N[C@H]1C[C@@H]2C[C@@H]2[C@H]2CC[C@@H](C(=O)N3CC(c4cccnc4)C3)N2C1=O)c1cc2cc(C(F)(F)P(=O)(O)O)ccc2s1` [Compound 67, (difluoro(2-(((3S,6S,7aS,8aS,8bR)-5-oxo-3-(3-(pyridin-3-yl)azetidine-1-carbonyl)decahydrocyclopropa[c]pyrrolo[1,2-a]azepin-6-yl)carbamoyl)benzo[b]thiophen-5-yl)methyl)phosphonic acid], the half-maximal inhibitory concentration (IC50) is 0.3 to 3 µM in assay [1] and less than 0.1 µM in assay [2].
For the compound `Cc1cccc(C2CN(C(=O)[C@@H]3CC[C@@H]4C[C@@H]5C[C@@H]5C[C@H](NC(=O)c5cc6cc(C(F)(F)P(=O)(O)O)ccc6s5)C(=O)N43)C2)c1` [Compound 68, (difluoro(2-(((3S,6S,7aR,8aS,9aR)-5-oxo-3-(3-(m-tolyl)azetidine-1-carbonyl)decahydro-1H-cyclopropa[d]pyrrolo[1,2-a]azocin-6-yl)carbamoyl)benzo[b]thiophen-5-yl)methyl)phosphonic acid], the IC50 in assay [1] is 0.3 to 3 µM; in assay [2], less than 0.1 µM.
For `CS(=O)(=O)CC1CN(C(=O)[C@@H]2CC[C@@H]3C[C@@H]4C[C@@H]4C[C@H](NC(=O)c4cc5cc(C(F)(F)P(=O)(O)O)ccc5s4)C(=O)N32)C1` [Compound 69, (difluoro(2-(((3S,6S,7aR,8aS,9aR)-3-(3-((methylsulfonyl)methyl)azetidine-1-carbonyl)-5-oxodecahydro-1H-cyclopropa[d]pyrrolo[1,2-a]azocin-6-yl)carbamoyl)benzo[b]thiophen-5-yl)methyl)phosphonic acid] the same measures were 3 to 30 µM and less than 0.1 µM.
Take `N#CC1(c2ccccn2)CN(C(=O)[C@@H]2CC[C@@H]3C[C@@H]4C[C@@H]4C[C@H](NC(=O)c4cc5cc(C(F)(F)P(=O)(O)O)ccc5s4)C(=O)N32)C1` [Compound 70, ((2-(((3S,6S,7aR,8aS,9aR)-3-(3-cyano-3-(pyridin-2-yl)azetidine-1-carbonyl)-5-oxodecahydro-1H-cyclopropa[d]pyrrolo[1,2-a]azocin-6-yl)carbamoyl)benzo[b]thiophen-5-yl)difluoromethyl)phosphonic acid]: the results for the concentration for half-maximal inhibition (IC50) in assay [1] and in assay [2] were 0.3 to 3 µM and less than 0.1 µM, respectively.
Take `O=C(N[C@H]1C[C@H]2C[C@H]2C[C@H]2CC[C@@H](C(=O)N3CC(C(=O)N4CCOCC4)C3)N2C1=O)c1cc2cc(C(F)(F)P(=O)(O)O)ccc2s1` [Compound 71, (difluoro(2-(((3S,6S,7aR,8aS,9aR)-3-(3-(morpholine-4-carbonyl)azetidine-1-carbonyl)-5-oxodecahydro-1H-cyclopropa[d]pyrrolo[1,2-a]azocin-6-yl)carbamoyl)benzo[b]thiophen-5-yl)methyl)phosphonic acid]: the figures for the IC50 in assay [1] and in assay [2] were 3 to 30 µM and less than 0.1 µM, respectively.
For `CN=S(C)(=O)CC1CN(C(=O)[C@@H]2CC[C@@H]3C[C@@H]4C[C@@H]4C[C@H](NC(=O)c4cc5cc(C(F)(F)P(=O)(O)O)ccc5s4)C(=O)N32)C1` (stereo partly drawn) [Compound 72, ((2-(((3S,6S,7aR,8aS,9aR)-3-(3-((N,S-dimethylsulfonimidoyl)methyl)azetidine-1-carbonyl)-5-oxodecahydro-1H-cyclopropa[d]pyrrolo[1,2-a]azocin-6-yl)carbamoyl)benzo[b]thiophen-5-yl)difluoromethyl)phosphonic acid] the same measures were 3 to 30 µM and less than 0.1 µM.
For `O=C(N[C@H]1C[C@H]2C[C@H]2C[C@H]2CC[C@@H](C(=O)N3CC(CC(F)F)(c4ccccc4)C3)N2C1=O)c1cc2cc(C(F)(F)P(=O)(O)O)ccc2s1` [Compound 73, ((2-(((3S,6S,7aR,8aS,9aR)-3-(3-(2,2-difluoroethyl)-3-phenylazetidine-1-carbonyl)-5-oxodecahydro-1H-cyclopropa[d]pyrrolo[1,2-a]azocin-6-yl)carbamoyl)benzo[b]thiophen-5-yl)difluoromethyl)phosphonic acid], in that order: 3 to 30 µM and less than 0.1 µM.
For `N#Cc1ccc(C2CN(C(=O)[C@@H]3CC[C@@H]4C[C@@H]5C[C@@H]5C[C@H](NC(=O)c5cc6cc(C(F)(F)P(=O)(O)O)ccc6s5)C(=O)N43)C2)cc1` [Compound 74, ((2-(((3S,6S,7aR,8aS,9aR)-3-(3-(4-cyanophenyl)azetidine-1-carbonyl)-5-oxodecahydro-1H-cyclopropa[d]pyrrolo[1,2-a]azocin-6-yl)carbamoyl)benzo[b]thiophen-5-yl)difluoromethyl)phosphonic acid] the same measures were 0.3 to 3 µM and less than 0.1 µM.
`COC1(c2nccn2C)CN(C(=O)[C@@H]2CC[C@@H]3C[C@@H]4C[C@@H]4C[C@H](NC(=O)c4cc5cc(C(F)(F)P(=O)(O)O)ccc5s4)C(=O)N32)C1` [Compound 75, (difluoro(2-(((3S,6S,7aR,8aS,9aR)-3-(3-methoxy-3-(1-methyl-1H-imidazol-2-yl)azetidine-1-carbonyl)-5-oxodecahydro-1H-cyclopropa[d]pyrrolo[1,2-a]azocin-6-yl)carbamoyl)benzo[b]thiophen-5-yl)methyl)phosphonic acid]: the concentration for half-maximal inhibition (IC50) in assay [1] is 3 to 30 µM; in assay [2], less than 0.1 µM.
For `Cn1cnnc1C1CN(C(=O)[C@@H]2CC[C@@H]3C[C@@H]4C[C@@H]4C[C@H](NC(=O)c4cc5cc(C(F)(F)P(=O)(O)O)ccc5s4)C(=O)N32)C1` [Compound 76, (difluoro(2-(((3S,6S,7aR,8aS,9aR)-3-(3-(4-methyl-4H-1,2,4-triazol-3-yl)azetidine-1-carbonyl)-5-oxodecahydro-1H-cyclopropa[d]pyrrolo[1,2-a]azocin-6-yl)carbamoyl)benzo[b]thiophen-5-yl)methyl)phosphonic acid] the same measures were 3 to 30 µM and less than 0.1 µM.
For `O=C(N[C@H]1C[C@H]2C[C@H]2C[C@H]2CC[C@@H](C(=O)N3CC(c4[nH]nc5c4CCC5)C3)N2C1=O)c1cc2cc(C(F)(F)P(=O)(O)O)ccc2s1` [Compound 77, (difluoro(2-(((3S,6S,7aR,8aS,9aR)-5-oxo-3-(3-(2,4,5,6-tetrahydrocyclopenta[c]pyrazol-3-yl)azetidine-1-carbonyl)decahydro-1H-cyclopropa[d]pyrrolo[1,2-a]azocin-6-yl)carbamoyl)benzo[b]thiophen-5-yl)methyl)phosphonic acid], in that order: 3 to 30 µM and less than 0.1 µM.
For `O=C(N[C@H]1C[C@H]2C[C@H]2C[C@H]2CC[C@@H](C(=O)N3CC(c4nc5ccccc5[nH]4)C3)N2C1=O)c1cc2cc(C(F)(F)P(=O)(O)O)ccc2s1` [Compound 78, ((2-(((3S,6S,7aR,8aS,9aR)-3-(3-(1H-benzo[d]imidazol-2-yl)azetidine-1-carbonyl)-5-oxodecahydro-1H-cyclopropa[d]pyrrolo[1,2-a]azocin-6-yl)carbamoyl)benzo[b]thiophen-5-yl)difluoromethyl)phosphonic acid] the same measures were 3 to 30 µM and less than 0.1 µM.

As a reminder, the IC50 is the midpoint of a concentration-inhibition curve.
